Measurements as given in US9517279B2, “2-alkoxy-11-hydroxyaporphine derivatives and uses thereof” (The McLean Hospital Corporation, priority 2010, dated 2016).
Structures can show the parent of a compound that is named as a salt. Where two headings read alike, the source gives them in different places.

Key:
D1^high = target: T1, D1^high (Rattus norvegicus, UniProt P18901); assay: Competitive radioreceptor binding, D1 high-affinity state, rat striatum [3H]SCH23390
T1 construct: membrane-containing homogenates of rat corpus striatum tissue; from tissue; host or cells: rat corpus striatum
T1 sequence (P18901 whole entry): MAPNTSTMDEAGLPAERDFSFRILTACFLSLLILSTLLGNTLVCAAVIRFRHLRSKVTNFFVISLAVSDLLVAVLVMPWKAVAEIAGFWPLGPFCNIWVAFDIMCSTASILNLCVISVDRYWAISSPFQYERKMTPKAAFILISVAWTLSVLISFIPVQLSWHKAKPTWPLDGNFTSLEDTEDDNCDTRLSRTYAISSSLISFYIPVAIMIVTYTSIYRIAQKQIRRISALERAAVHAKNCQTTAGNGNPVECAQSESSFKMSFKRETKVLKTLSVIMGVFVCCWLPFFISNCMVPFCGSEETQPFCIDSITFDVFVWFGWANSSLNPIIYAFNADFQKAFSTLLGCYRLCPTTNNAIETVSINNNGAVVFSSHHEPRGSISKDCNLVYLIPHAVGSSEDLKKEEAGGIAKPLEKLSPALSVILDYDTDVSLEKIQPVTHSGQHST

D2^low = target: T2, D2^low (Rattus norvegicus, UniProt P61169); assay: Competitive radioreceptor binding, D2 low-affinity state, rat striatum [3H]domperidone
T2 construct: membrane-containing homogenates of rat corpus striatum tissue; from tissue; host or cells: rat corpus striatum
T2 sequence (P61169 whole entry): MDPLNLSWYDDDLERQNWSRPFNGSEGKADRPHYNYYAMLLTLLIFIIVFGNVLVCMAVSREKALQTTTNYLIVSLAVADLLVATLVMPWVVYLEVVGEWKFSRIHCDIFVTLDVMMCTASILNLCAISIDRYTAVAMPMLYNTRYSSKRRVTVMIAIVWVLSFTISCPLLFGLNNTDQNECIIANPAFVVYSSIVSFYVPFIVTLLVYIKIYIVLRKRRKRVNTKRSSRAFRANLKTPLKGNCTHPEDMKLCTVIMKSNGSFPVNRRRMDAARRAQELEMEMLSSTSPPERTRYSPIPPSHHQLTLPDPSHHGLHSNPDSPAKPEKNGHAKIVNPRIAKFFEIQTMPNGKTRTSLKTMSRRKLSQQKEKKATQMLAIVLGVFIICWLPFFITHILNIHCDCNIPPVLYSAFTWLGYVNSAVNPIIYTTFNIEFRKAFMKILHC

D2^high = target: T3, D2^high (Rattus norvegicus, UniProt P61169); assay: Competitive radioreceptor binding, D2 high-affinity state, rat striatum [3H]domperidone; conditions: for D2^high binding affinity (in words): comparison with analogue
T3 construct: membrane-containing homogenates of rat corpus striatum tissue; from tissue; host or cells: rat corpus striatum
T3 sequence (P61169 whole entry): as above

human D3 clone = target: T4, human D3 clone (Homo sapiens, UniProt P35462); assay: Competitive binding, human D3 clone [3H]domperidone; conditions: for Ki: human D3 clone, [3H]domperidone
T4 construct: expressed in transfected cells
T4 sequence (P35462 whole entry): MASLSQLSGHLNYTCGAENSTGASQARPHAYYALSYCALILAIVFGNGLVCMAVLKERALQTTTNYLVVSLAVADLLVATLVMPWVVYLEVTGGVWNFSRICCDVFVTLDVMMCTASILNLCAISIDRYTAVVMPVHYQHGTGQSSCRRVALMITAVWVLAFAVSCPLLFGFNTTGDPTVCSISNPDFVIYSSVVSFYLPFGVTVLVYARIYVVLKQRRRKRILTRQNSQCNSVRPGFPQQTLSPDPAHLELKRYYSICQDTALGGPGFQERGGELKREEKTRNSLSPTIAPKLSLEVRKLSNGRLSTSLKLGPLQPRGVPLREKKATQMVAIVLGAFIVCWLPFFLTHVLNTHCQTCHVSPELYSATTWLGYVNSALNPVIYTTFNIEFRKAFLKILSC

D1^low = target: T5, D1^low (Rattus norvegicus, UniProt P18901); assay: Competitive radioreceptor binding, D1 low-affinity state, rat striatum [3H]SCH23390
T5 construct: membrane-containing homogenates of rat corpus striatum tissue; from tissue; host or cells: rat corpus striatum
T5 sequence (P18901 whole entry): as the sequence (P18901 whole entry) above

D3^high = target: T6, D3^high (Homo sapiens, UniProt P35462); assay: D3 high-affinity state binding (footnote g); conditions: footnote g of Table 1
T6 construct: expressed in transfected cells
T6 sequence (P35462 whole entry): as the sequence (P35462 whole entry) above

D1 human clone (D1^low) = target: T7, D1 human clone (D1^low) (Homo sapiens, UniProt P21728); assay: Competitive binding, D1 human clone [3H]SCH23390
T7 construct: expressed in transfected cells
T7 sequence (P21728 whole entry): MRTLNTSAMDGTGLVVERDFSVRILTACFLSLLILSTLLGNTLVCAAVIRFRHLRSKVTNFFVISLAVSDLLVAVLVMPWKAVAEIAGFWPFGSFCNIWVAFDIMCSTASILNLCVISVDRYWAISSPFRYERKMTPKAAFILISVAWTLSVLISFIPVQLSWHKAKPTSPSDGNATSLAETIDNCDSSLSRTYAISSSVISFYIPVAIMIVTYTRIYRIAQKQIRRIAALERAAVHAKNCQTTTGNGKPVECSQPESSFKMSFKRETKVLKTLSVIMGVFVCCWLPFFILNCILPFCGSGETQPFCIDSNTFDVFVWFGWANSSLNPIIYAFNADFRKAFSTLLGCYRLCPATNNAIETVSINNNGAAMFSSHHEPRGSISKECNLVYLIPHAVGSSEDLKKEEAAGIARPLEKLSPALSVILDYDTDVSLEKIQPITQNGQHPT

D3 rat clone = target: T8, D3 rat clone (Rattus norvegicus, UniProt P19020); assay: Competitive binding, D3 rat clone [3H]domperidone
T8 construct: expressed in transfected cells
T8 sequence (P19020 whole entry): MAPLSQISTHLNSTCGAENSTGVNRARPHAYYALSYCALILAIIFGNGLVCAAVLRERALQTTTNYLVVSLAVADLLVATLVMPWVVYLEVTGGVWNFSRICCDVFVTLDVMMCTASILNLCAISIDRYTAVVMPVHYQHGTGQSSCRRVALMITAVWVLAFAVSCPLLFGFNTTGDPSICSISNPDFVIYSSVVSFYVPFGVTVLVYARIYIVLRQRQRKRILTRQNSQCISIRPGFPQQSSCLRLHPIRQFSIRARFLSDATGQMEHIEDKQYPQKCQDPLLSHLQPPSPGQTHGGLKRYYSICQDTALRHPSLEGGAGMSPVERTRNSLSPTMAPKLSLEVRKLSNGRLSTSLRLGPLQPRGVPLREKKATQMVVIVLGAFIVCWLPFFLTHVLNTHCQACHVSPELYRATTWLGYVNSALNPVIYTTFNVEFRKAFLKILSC

[1] = rat striatum, [3H]domperidone, read-out: Ki D2^high
[2] = rat striatum, [3H]SCH23390, read-out: Ki D1^low (class)

SMILES | Ki D1^high (D1^high) | Ki (D2^low) | Ki (D2^high; [1]) | Ki (D1^low; [2]) | melting point | other results
Oc1cccc2c1-c1cccc3c1[C@@H](C2)N(CCCF)CC3 [compound 6, R(−)-11-Hydroxy-N-(3-fluoropropyl)noraporphine] | No D1^high | 860 ± 170 nM | 6.9 ± 2.1 nM | > 2000 nM | – | Ki (human D3 clone; bound given in μM): > 10 µM
CCCN1CCc2cc(OCCF)cc3c2[C@H]1Cc1ccc(O)c(O)c1-3 (as salt: HCl) [8b, R(−)-2-Fluoroethyoxy-NPA] | – | – | – | – | 203 to 205 °C (dec.) | –
CN1CCc2cc(OCCCF)cc3c2[C@H]1Cc1ccc(O)c(O)c1-3 (as salt: HCl) [8f, R(−)-2-(3-Fluoropropanoxy) 10,11-dihydroxyaporphine] | – | – | – | – | 170 to 175 °C (dec.) | –
CCN1CCc2cc(OCCF)cc3c2[C@H]1Cc1ccc(O)c(O)c1-3 (as salt: HCl) [8d, R(−)-2-fluoroethoxy-N-ethylnorapomorphine] | – | – | – | – | 163 to 165 °C | –
CCCN1CCc2cc(F)cc3c2[C@H]1Cc1ccc(O)c(O)c1-3 [2c, 2-F-NPA, reference compound] | No D1^high | 1800 ± 340 nM | 2.7 ± 1.3 nM | > 2000 nM | – | –
Oc1cccc2c1-c1cccc3c1[C@@H](C2)N(CCCF)CC3 (as salt: HCl) [compound 6, R(−)-11-Hydroxy-N-(3-fluoropropyl)noraporphine] | – | – | – | – | 195 to 197 °C (dec.) | –
CN1CCc2cc(OCCCF)cc3c2[C@H]1Cc1ccc(O)c(O)c1-3 [8f, R(−)-2-(3-Fluoropropanoxy) 10,11-dihydroxyaporphine] | No D1^high | – | 31 nM | > 2000 nM | – | D3^high affinity (D3^high): did not show any D3^high affinity
CCN1CCc2cc(OCCI)cc3c2[C@H]1Cc1ccc(O)c(O)c1-3 (as salt: HCl) [8e, R(−)-2-iodoethoxy-N-ethylnorapomorphine] | – | – | – | – | 155 to 163 °C (dec.) | –
CCN1CCc2cc(OCCCF)cc3c2[C@H]1Cc1cccc(O)c1-3 [11c] | No D1^high | 400 ± 290 nM | 3.2 ± 2.2 nM | – | – | Ki (D1 human clone (D1^low)): 1300 ± 200 nM; D2^high binding affinity (in words) (D2^high): overall improved binding affinity; Ki (D3 rat clone): 240 ± 33 nM
CCCN1CCc2cc(OCCF)cc3c2[C@H]1Cc1cccc(O)c1-3 [11b, R(−)-2-(2-fluoroethoxy)-11-hydroxy-N-n-propylnoraporphine] | No D1^high | 56 ± 37 nM | 3.5 ± 2 nM | – | – | D2^high binding affinity (in words) (D2^high): about the same; Ki (D1^low): > 2000 nM; Ki (D3 rat clone): 410 ± 62 nM
CCCN1CCc2cc(OC)cc3c2[C@H]1Cc1ccc(O)c(O)c1-3 [2b, 2-MeO-NPA, reference compound] | – | 805 ± 140 nM | 5.1 ± 1.3 nM | – | – | Ki (D1^high): 8.1 ± 0.7 nM; Ki (D1^low): > 2000 nM
CCCN1CCc2cc(OCCF)cc3c2[C@H]1Cc1ccc(O)c(O)c1-3 [8b, R(−)-2-Fluoroethyoxy-NPA] | No D1^high | 990 ± 35 nM | 3.7 nM | > 2000 nM | – | Ki (human D3 clone): 2.2 ± 0.33 µM
CCN1CCc2cc(OCCCF)cc3c2[C@H]1Cc1ccc(O)c(O)c1-3 (as salt: HCl) [8c, R(−)-2-(3-Fluoropropanoxy) 10,11-dihydroxy-N-ethylnoraporphine] | – | – | – | – | 174 to 176 °C (dec.) | –
CCCN1CCc2cc(OCCCF)cc3c2[C@H]1Cc1cccc(O)c1-3 [11a] | No D1^high | – | – | > 2000 nM | – | Ki (D3 rat clone): 100 ± 14 nM
CCN1CCc2cc(OCCF)cc3c2[C@H]1Cc1ccc(O)c(O)c1-3 [8d, R(−)-2-fluoroethoxy-N-ethylnorapomorphine] | No D1^high | 2400 ± 1500 nM | 2.5 nM | > 2000 nM | – | fold improvement in D2^high binding affinity (D2^high; compared with 8c): more than 2 fold
CCN1CCc2cc(OCCCF)cc3c2[C@H]1Cc1cccc(O)c1-3 (as salt: HCl) [11c] | – | – | – | – | 156 to 158 °C (dec.) | –
CCN1CCc2cc(OCCI)cc3c2[C@H]1Cc1ccc(O)c(O)c1-3 [8e, R(−)-2-iodoethoxy-N-ethylnorapomorphine] | No D1^high | 770 ± 230 nM | – | > 2000 nM | – | Ki (D2^high): 5 ± 2.3 nM; D2^high binding affinity (in words) (D2^high): slight drop; selectivity for D2^high over D1, D3, and D2^low (D2^high; in words): high selectivity; Ki (human D3 clone; bound given in μM): > 10 µM
CCCN1CCc2cc(OCCCF)cc3c2[C@H]1Cc1ccc(O)c(O)c1-3 [8a, R(−)-2-(3-fluoropropanoxy)-NPA] | No D1^high | 3000 nM | 28 ± 15 nM | – | – | Ki (D2^high): 27 nM; Ki (human D3 clone): 0.43 ± 0.064 µM; Ki (D1^low): > 2000 nM
CCN1CCc2cc(OCCCF)cc3c2[C@H]1Cc1ccc(O)c(O)c1-3 [8c, R(−)-2-(3-Fluoropropanoxy) 10,11-dihydroxy-N-ethylnoraporphine] | No D1^high | 1600 ± 780 nM | 6.1 ± 3 nM | > 2000 nM | – | fold increase in D2^high affinity (D2^high; in comparison to 8a): ~4 fold
CCCN1CCc2cccc3c2[C@H]1Cc1cccc(O)c1-3 [3b, reference compound] | – | – | – | – | – | Ki (human D3 clone): 1.7 ± 0.25 µM
CN1CCc2cc(OCCF)cc3c2[C@H]1Cc1ccc(O)c(O)c1-3 [8g, R(−)-2-(2-Fluoroethoxy) 10,11-dihydroxyaporphine] | No D1^high | 620 ± 260 nM | – | > 2000 nM | – | D3 affinity (in words) (human D3 clone): no detectable affinity
CN1CCc2cc(OCCF)cc3c2[C@H]1Cc1cccc(O)c1-3 [11g, R(−)-2-(2-fluoroethoxy)-11-hydroxyaporphine] | – | 480 ± 130 nM | 1.2 ± 0.4 nM | – | – | Ki (human D3 clone): 0.89 ± 0.13 µM
CCN1CCc2cc(OCCF)cc3c2[C@H]1Cc1cccc(O)c1-3 [11d, R(−)-2-(2-fluoroethoxy)-11-hydroxy-N-n-ethylnoraporphine] | No D1^high | – | – | – | – | Ki (D1 human clone (D1^low); D1 human clone, [3H]SCH23390, read-out: Ki D1^low): 810 ± 120 nM; Ki (D3 rat clone): 550 ± 89 nM
CN1CCc2cc(OCCF)cc3c2[C@H]1Cc1ccc(O)c(O)c1-3 (as salt: salt) [8g, R(−)-2-(2-Fluoroethoxy) 10,11-dihydroxyaporphine] | – | – | – | – | 236 to 238 °C (dec.) | –
